According to publication PMC4689404, “2-Benzazolyl-4-Piperazin-1-Ylsulfonylbenzenecarbohydroxamic Acids as Novel Selective Histone Deacetylase-6 Inhibitors with Antiproliferative Activity” (PLoS ONE, 2015):
pIC50: −log10 of the molar value.

How the values were obtained:
HCC4017 = assay: MTS viability assay; type: cell-based, human; settings: for pIC50: Homo sapiens, HCC4017, 96 h, Patient A cancer line, MTS, 4 days, read-out: Antiproliferative activity IC50, HCC4017; for Selectivity (HBEC-30KT vs HCC4017): Patient A
Method: Immortalized normal human bronchial epithelial cells (also provided by Dr. John D. Minna) were cultured in KSFM supplemented with pituitary extract and EGF. For viability assays, cells were plated on 96 well plates and grown overnight. Cells were then exposed to increasing doses of the indicated compounds for 4 days and their viability assayed using the Promega Cell Titer 96 AQueous One kit per the manufacturer’s protocol. All doses were tested in 4–8 replicates. IC50 values were calculated using the in-house software DIVISA.

[1] = system: epigenetically silenced GFP transgene in LDR cells; assay: locus derepression (LDR) assay, GFP induction; type: cell-based
Method: LDR cells were maintained in DMEM with L-glutamine and high glucose, 1 mM sodium pyruvate, 0.1 mM MEM non-essential amino acids, 1% v/v penicillin-streptomycin and 10% heat inactivated FBS. Cells were seeded on glass bottom chambers at low-medium density and allowed to attach overnight. Compounds were then added for 24h at the indicated dose and cells were imaged under a fluorescent microscope equipped with a camera using a 20 or 40X objective. All images shown were exposed for identical time.

[2] = system: HCC4017 lung cancer cells; assay: cell cycle analysis (PI, FACS); type: cell-based, human; settings: for effect on cell cycle distribution: HCC4017, FACs analysis; for subG0 population: HCC4017, even after 64h
Method: For cell cycle analysis, cells were washed with PBS, fixed in 70% ethanol for 2 h, washed with PBS and resuspended in staining solution (0.1% Triton X-100, 0.2 mg/ml DNAse-free RNAse A and […]) and incubated at 37C for 15 min. Histograms were acquired on a BD FACSCalibur flow cytometer at UT Southwestern’s core facility. Apoptosis was measured using a FITC Annexin V Apoptosis Detection Kit I (BD Pharmingen) according to manufacturer’s protocol after treating cells with compounds as indicated in Figure legends.

KM12 = assay: NCI 60 screen, five dose; type: cell-based; settings: Homo sapiens, Colon Cancer, GI50 = molar concentration, read-out: Log10 GI50 (converted)
M14 = assay: NCI 60 screen, five dose; type: cell-based; settings: Homo sapiens, Melanoma, GI50 = molar concentration, read-out: Log10 GI50 (converted)
Colon cancer cell lines = assay: NCI 60 screen, five dose; type: cell-based, human; settings: for GI50: Homo sapiens; for no. cell lines used for the assay/no inhibited by compound: figures in parenthesis
NCI-H23 = assay: NCI 60 screen, five dose; type: cell-based; settings: Homo sapiens, Non-Small Cell Lung Cancer, GI50 = molar concentration, read-out: Log10 GI50 (converted)
HCT-15 = assay: NCI 60 screen, five dose; type: cell-based; settings: Homo sapiens, Colon Cancer, GI50 = molar concentration, read-out: Log10 GI50 (converted)
UO-31 = assay: NCI 60 screen, five dose; type: cell-based; settings: Homo sapiens, Renal Cancer, GI50 = molar concentration, read-out: Log10 GI50 (converted)
SNB-75 = assay: NCI 60 screen, five dose; type: cell-based; settings: Homo sapiens, CNS Cancer, GI50 = molar concentration, read-out: Log10 GI50 (converted)
Breast cancer cell lines = assay: NCI 60 screen, five dose; type: cell-based, human; settings: for GI50: Homo sapiens; for no. cell lines used for the assay/no inhibited by compound: figures in parenthesis
NCI-H322M = assay: NCI 60 screen, five dose; type: cell-based; settings: Homo sapiens, Non-Small Cell Lung Cancer, GI50 = molar concentration, read-out: Log10 GI50 (converted)
UACC-62 = assay: NCI 60 screen, five dose; type: cell-based; settings: Homo sapiens, Melanoma, GI50 = molar concentration, read-out: Log10 GI50 (converted)
CNS cancer cell lines = assay: NCI 60 screen, five dose; type: cell-based, human; settings: for GI50: Homo sapiens; for no. cell lines used for the assay/no inhibited by compound: figures in parenthesis
Leukemia cell lines = assay: NCI 60 screen, five dose; type: cell-based, human; settings: for GI50: Homo sapiens; for no. cell lines used for the assay/no inhibited by compound: figures in parenthesis
SW-620 = assay: NCI 60 screen, five dose; type: cell-based; settings: Homo sapiens, Colon Cancer, GI50 = molar concentration, read-out: Log10 GI50 (converted)
HL-60(TB) = assay: NCI 60 screen, five dose; type: cell-based; settings: Homo sapiens, Leukemia, GI50 = molar concentration, read-out: Log10 GI50 (converted)
SF-268 = assay: NCI 60 screen, five dose; type: cell-based; settings: Homo sapiens, CNS Cancer, GI50 = molar concentration, read-out: Log10 GI50 (converted)
RXF 393 = assay: NCI 60 screen, five dose; type: cell-based; settings: Homo sapiens, Renal Cancer, GI50 = molar concentration, read-out: Log10 GI50 (converted)
SK-OV-3 = assay: NCI 60 screen, five dose; type: cell-based; settings: Homo sapiens, Ovarian Cancer, GI50 = molar concentration, read-out: Log10 GI50 (converted)
Melanoma cell lines = assay: NCI 60 screen, five dose; type: cell-based, human; settings: for GI50: Homo sapiens; for no. cell lines used for the assay/no inhibited by compound: figures in parenthesis
HOP-62 = assay: NCI 60 screen, five dose; type: cell-based; settings: Homo sapiens, Non-Small Cell Lung Cancer, GI50 = molar concentration, read-out: Log10 GI50 (converted)
IGROV1 = assay: NCI 60 screen, five dose; type: cell-based; settings: Homo sapiens, IGROV-1, Ovarian Cancer, GI50 = molar concentration, read-out: Log10 GI50 (converted)
[3] = system: 60 human tumor cell lines; assay: NCI 60 human tumor cell line screen; type: cell-based; settings: for GI50: Homo sapiens, 60 cell, read-out: MID (average GI50 across the 60 cell lines); for average growth inhibition: single dose of 10 μm, 60 cell line panel
Source text: To evaluate if the antiproliferative activity of the novel hydroxamic acid derived compounds was general across cancer types, selected compounds were submitted for testing in the tissue-specific panel of human tumor cell lines at the National Cancer Institute, Bethesda, USA. This screen utilizes 60 human tumor cell lines, representing leukemia, melanoma and cancers of the lung, colon, brain, ovary, kidney, prostate and breast. This cell line panel offers the advantage of having available microarray gene expression data across the 60 cell lines which can be used to determine the uniqueness of a new lead for which the molecular target(s) might not be known. The antitumor activity is presented for each cell line by three parameters, namely log10 GI50 value (GI50 = molar concentration of the compound that inhibits 50% net cell growth), log10 TG value (TGI = molar concentration of the compound leading to total inhibition of net cell growth), and log10 LC50 value (LC50 = molar concentration of the compound leading to 50% net cell death) accompanied by MID which refers to the average inhibitory value across the 60 cell lines.
In this assay, compounds 9c (NSC 747073) and 9d (NSC 747072) inhibited the proliferation of subsets of leukemia, colon, CNS, melanoma, and prostrate cancer cells to a higher extent than cells from other cancers (Fig 6A and 6B).

CAKI-1 = assay: NCI 60 screen, five dose; type: cell-based; settings: Homo sapiens, Renal Cancer, GI50 = molar concentration, read-out: Log10 GI50 (converted)
SF-295 = assay: NCI 60 screen, five dose; type: cell-based; settings: Homo sapiens, CNS Cancer, GI50 = molar concentration, read-out: Log10 GI50 (converted)

SMILES	pIC50 (HCC4017)	Selectivity (HBEC-30KT vs HCC4017) (HCC4017)	effect on cell cycle distribution [2]	subG0 population [2]	GI50 (KM12)	GI50 (M14)	GI50 (Colon cancer cell lines)	no. cell lines used for the assay/no inhibited by compound (Colon cancer cell lines)	GI50 (NCI-H23)	GI50 (HCT-15)	GI50 (UO-31)	GI50 (SNB-75)	GFP induction / activity in the LDR assay [1]	GI50 (Breast cancer cell lines)	no. cell lines used for the assay/no inhibited by compound (Breast cancer cell lines)	GI50 (NCI-H322M)	GI50 (UACC-62)	GI50 (CNS cancer cell lines)	no. cell lines used for the assay/no inhibited by compound (CNS cancer cell lines)	GI50 (Leukemia cell lines)	also measured
Cn1c(N2CCN(S(=O)(=O)c3ccc(C(=O)NO)cc3)CC2)nc2ccccc21 [Compound 9b, 4-[4-(1-methylbenzimidazol-2-yl)piperazin-1-yl]sulfonylbenzenecarbohydroxamic acid]	5.83	> 6.71	affect cell cycle distribution after just 18h of treatment	no subG0 population was observed																	activation of the silenced GFP gene (GFP expression) ([1]; compound at 20μM, fluorescence microscopy): robust GFP expression
O=C(NO)c1ccc(S(=O)(=O)N2CCN(c3nc4ccccc4o3)CC2)cc1 [Compound 9c, 4-(4-Benzoxazol-2-yl-piperazin-1-sulfonyl)-N -hydroxy-benzamid]	5.91	> 8.06	affect cell cycle distribution after just 18h of treatment	no subG0 population was observed	5.13 µM	5.89 µM	6.05 µM	4/6	3.72 µM	18.2 µM	10.7 µM	4.37 µM	high level of GFP induction	8.71 µM	2/7	14.5 µM	4.27 µM	5.82 µM	4/6	2.24 µM	no. cell lines used for the assay/no inhibited by compound (Leukemia cell lines): 4/4; GI50 (SW-620): 4.37 µM; GI50 (HL-60(TB)): 5.89 µM; GI50 (SF-268): 12 µM; GI50 (RXF 393): 4.47 µM; GI50 (SK-OV-3): 14.8 µM; GI50 (Melanoma cell lines): 5.62 µM; no. cell lines used for the assay/no inhibited by compound (Melanoma cell lines): 6/8; GI50 (HOP-62): 12 µM; GI50 (IGROV1): 11 µM; GI50 ([3]; five dose assay): 6.61 µM; average growth inhibition [3]: 50%; GI50 (CAKI-1): 3.39 µM; GI50 (SF-295): 3.09 µM
O=C(NO)c1ccc(S(=O)(=O)N2CCN(c3nc4ccccc4s3)CC2)cc1 [Compound 9d, 4-(4-Benzothiazol-2-yl-piperazin-1-sulfonyl)-N -hydroxy-benzamid]	5.79	3.29			2.14 µM	1.62 µM	2.3 µM	6/7	1.55 µM	3.98 µM	4.37 µM	1.74 µM	high level of GFP induction	3.88 µM	4/7	5.62 µM	1.7 µM	2.77 µM	4/6	1.77 µM	no. cell lines used for the assay/no inhibited by compound (Leukemia cell lines): 5/5; GI50 (SW-620): 1.66 µM; GI50 (HL-60(TB)): 2.57 µM; GI50 (SF-268): 3.98 µM; GI50 (RXF 393): 2 µM; GI50 (SK-OV-3): 7.76 µM; GI50 (Melanoma cell lines): 2.66 µM; no. cell lines used for the assay/no inhibited by compound (Melanoma cell lines): 5/8; GI50 (HOP-62): 3.8 µM; GI50 (IGROV1): 3.55 µM; GI50 ([3]; five dose assay): 3.16 µM; more potent overall by a factor, compared to 9c ([3]; MID, five dose assay): 2; average growth inhibition [3]: 62%; GI50 (CAKI-1): 2.34 µM; GI50 (SF-295): 1.86 µM
